Experimental data as given in patent US20260055088A1, “HETEROCYCLIC COMPOUND, METHOD FOR PREPARING SAME, AND PHARMACEUTICAL USE THEREOF” (Jiangsu Hengrui Pharmaceuticals Co., Ltd., priority 2022, published 2026).
Values joined by “and” are separate entries in the source; they are usually repeats but may differ in a detail not shown here. Equal values may be shown once. Read-outs that look alike come from different tables or passages of the source.

What was measured:
[1] = Pharmacokinetic evaluation in C57 mice (i.g./i.v.); type: in vivo; conditions: for Vd / AUC(0-t) / half-life / Cmax / bioavailability / CL/F: both sexes, mouse, plasma; for Vd: read-out: Apparent distribution volume Vss; for AUC(0-t): read-out: Area under curve AUC0-t; for half-life: read-out: Half-life T½ (converted); for Cmax: read-out: Plasma concentration Cmax; for bioavailability: oral, i.g. 2.0 mg/kg vs i.v. 1.0 mg/kg, read-out: Bioavailability F; for CL/F: read-out: Clearance rate CL/F; for Clearance rate CL/F: i.v.
Procedure: C57 mice were used as test animals. After intragastric (i.g.)/intravenous (i.v.) administration of the compounds of the present disclosure to C57 mice, the plasma concentrations of the compounds at different time points were determined by the LC/MS/MS method. The pharmacokinetic behaviors of the compounds of the present disclosure in C57 mice were studied, and their pharmacokinetic profiles were evaluated.
Compound 16 and compound 32.
Thirty-six C57 mice, with an equal number of males and females, provided by Vital River Laboratory Animal Technology Co., Ltd., with the production licenses SCXK (Zhejiang) 2019-0001 and SCXK (Beijing) 2019-0006. The mice were evenly divided into 4 groups of 9, with 3 mice per time point per group, and dosed by intragastric and intravenous administration.
Certain amounts of the test compounds were weighed out, and 5% DMSO+5% tween 80+90% normal saline was added to prepare 0.1 mg/mL colorless clear solutions (for the intragastric administration groups) and 0.1 mg/mL colorless clear solutions (for the intravenous administration groups).
The intragastric administration groups: The administration dose was 2.0 mg/kg, and the administration volume was 20 mL/kg.
The intravenous administration groups: The administration dose was 1.0 mg/kg, and the administration volume was 10 mL/kg.
The intragastric administration groups: 0.1-mL blood samples were collected from the orbit before administration and 0.25, 0.5, 1.0, 2.0, 4.0, 6.0, 8.0, 11.0, and 24.0 h after administration, placed into EDTA-K2 anticoagulation test tubes, and centrifuged at 10,000 rpm for 1 min (4° C.), and the plasma was separated within 1 h and stored at −80° C. before analysis. The procedures from the blood collection to the centrifugation were performed under ice-bath conditions.
The intravenous administration groups: Blood samples were collected before administration and 5 min and 0.25, 0.5, 1.0, 2.0, 4.0, 8.0, 11.0, and 24 h after administration and were treated in the same way as those collected from the intragastric administration groups.
Determination of the plasma concentrations of the test compounds in C57 mice after the compounds were administered at different concentrations: Compound 16: A 20-μL sample of the C57 mouse plasma collected at each time point after administration was taken, and 200 μL of acetonitrile containing 100 ng/mL camptothecin (internal standard) was added to each sample to precipitate protein. The mixture was vortexed for 5 min and centrifuged at 3700 rpm for 10 min. 50 μL of the supernatant was taken, and 100 μL of water was added. The mixture was vortexed for 5 min, and 1 μL of the mixture was taken for LC/MS/MS analysis. Compound 32: A 20-μL sample of the C57 mouse plasma collected at each time point after administration was taken, and 200 μL of acetonitrile containing verapamil (internal standard, 20 ng/mL) was added to each sample to precipitate protein. The mixture was vortexed for 5 min and centrifuged at 3700 rpm for 10 min. 90 μL of the supernatant was taken, and 90 μL of water was added. The mixture was vortexed for 5 min, and 0.1 μL of the mixture was taken for LC/MS/MS analysis.

rat incision pain model = assay: Analgesic efficacy in rat incision pain model (mechanical pain threshold); type: in vivo, SD rats; conditions: i.g./one dose; for Pain threshold: rat incision pain model, 5 h after administration; for Percent increase in threshold: vs. vehicle control
Procedure: To evaluate the analgesic efficacy of the compounds of the present disclosure in inhibiting pain in rats of a rat incision pain model.
The compounds of Example 16 and Example 32.
Test animals: SD rats, purchased from Beijing Vital River Laboratory Animal Technology Co., Ltd. (license number: SCXK (Zhejiang) 2019-0001), weighing about 180 g on purchase.
Housing conditions: 5 animals/cage, a 12/12-hour light/dark cycle, a constant temperature of 23±1° C. with humidity at 50 to 60%, ad libitum access to food and water.
After acclimatization, the SD rats were grouped as follows:
Nine SD rats, weighing 170-190 g, were selected for this study. The mechanical pain threshold was measured using an electronic aesthesiometer. Then an incision pain surgery was performed. During the surgery, after the rats were anesthetized with Zoletil (Zoletil-50, 250 mg, diluted with normal saline to 50 mL after being dissolved, injected at a dose of 2 mL per 200 g of body weight), a 1 cm long incision was made in the middle of the plantar surface of the left hind paw using a No. 10 scalpel blade, cutting through the skin and fascia, and the incision was closed using 3-0 sterile silk sutures. The injured area was disinfected with penicillin, and the animals were returned to their original place to recover overnight. After the overnight recovery, oral gavage administration was performed. Five hours after administration (about 24 h after surgery), the mechanical pain threshold was measured using an electronic aesthesiometer.
Data were recorded using Excel statistical software: The averages were calculated using avg; the SD values were calculated using STDEV; the SEM values were calculated using STDEV/SQRT (the number of animals per group). Plotting was performed using GraphPad Prism software. Statistical analysis of the data was performed using one-way ANOVA and t-test.
Percent increase in threshold (%)=[(Gt−G0)/G0]×100(%), where Gt is the plantar pain threshold of the administration group, and G0 is the plantar pain threshold of the vehicle group.

**Q.** With `CO/N=C(\N)c1cc(NC(=O)[C@@H]2O[C@@](C)(C(F)(F)F)[C@@H](C)[C@H]2c2ccc(F)c(F)c2OC)ccn1` [Example 16] as the molecule, how does the Vd ([1]; iv, 1.0 mg/kg) read?
**A.** The Vd was 9.97 L/kg.

**Q.** And the AUC(0-t) ([1]; iv, 1.0 mg/kg)?
**A.** Its AUC(0-t) is 718 ng·h/mL.

**Q.** And the half-life ([1]; iv, 1.0 mg/kg)?
**A.** Its half-life is 8.1 h.

**Q.** And the Cmax ([1]; iv, 1.0 mg/kg)?
**A.** Its Cmax is 377 ng/mL.

**Q.** What about the bioavailability [1] of the same molecule?
**A.** Its bioavailability is 87.2%.

**Q.** What about the AUC(0-t) ([1]; po, i.g., 2.0 mg/kg) of the same molecule?
**A.** The AUC(0-t) was 1250 ng·h/mL.

**Q.** And the CL/F ([1]; po, i.g., 2.0 mg/kg)?
**A.** The CL/F was 24.4 mL/min/kg.

**Q.** And the half-life ([1]; po, i.g., 2.0 mg/kg)?
**A.** Its half-life is 7.5 h.

**Q.** What about the Cmax ([1]; po, i.g., 2.0 mg/kg) of the same molecule?
**A.** Its Cmax is 266 ng/mL.

**Q.** And the “Clearance rate CL/F” value ([1]; 1.0 mg/kg)?
**A.** Its value is 21.1 mL/min/kg.

**Q.** What about the Pain threshold (rat incision pain model; 50 mpk) of the same molecule?
**A.** Its Pain threshold is 10.8 gf and 10.8 ± 0.5 gf.

**Q.** And the Pain threshold (rat incision pain model; 100 mpk)?
**A.** Its Pain threshold is 14.9 gf and 14.9 ± 1.5 gf.

**Q.** And the Pain threshold (rat incision pain model; 200 mpk)?
**A.** The Pain threshold was 22.3 gf and 22.3 ± 1.8 gf.

**Q.** What about the “Percent increase in threshold” value (rat incision pain model; 50 mpk) of the same molecule?
**A.** Its value is 7%.

**Q.** And the “Percent increase in threshold” value (rat incision pain model; 100 mpk)?
**A.** Its value is 49%.

**Q.** What about the “Percent increase in threshold” value (rat incision pain model; 200 mpk) of the same molecule?
**A.** The value was 122%.

**Q.** Which Vd ([1]; iv, 1.0 mg/kg) does the source give for `COc1c([C@H]2[C@H](C(=O)Nc3ccnc(/C(N)=N/O)c3)O[C@@](C)(C(F)(F)F)[C@H]2C)ccc(F)c1F` [Example 32] here?
**A.** Its Vd is 3.93 L/kg.

**Q.** What about the AUC(0-t) ([1]; iv, 1.0 mg/kg) of the same molecule?
**A.** The AUC(0-t) was 947 ng·h/mL.

**Q.** And the half-life ([1]; iv, 1.0 mg/kg)?
**A.** The half-life was 3.3 h.

**Q.** And the Cmax ([1]; iv, 1.0 mg/kg)?
**A.** Its Cmax is 616 ng/mL.

**Q.** What about the bioavailability [1] of the same molecule?
**A.** The bioavailability was 82.6%.

**Q.** And the AUC(0-t) ([1]; po, i.g., 2.0 mg/kg)?
**A.** Its AUC(0-t) is 1560 ng·h/mL.

**Q.** What about the CL/F ([1]; po, i.g., 2.0 mg/kg) of the same molecule?
**A.** The CL/F was 21.2 mL/min/kg.

**Q.** What about the half-life ([1]; po, i.g., 2.0 mg/kg) of the same molecule?
**A.** The half-life was 3.2 h.

**Q.** What about the Cmax ([1]; po, i.g., 2.0 mg/kg) of the same molecule?
**A.** The Cmax was 260 ng/mL.

**Q.** And the “Clearance rate CL/F” value ([1]; 1.0 mg/kg)?
**A.** The value was 16.1 mL/min/kg.

**Q.** And the Pain threshold (rat incision pain model; 30 mpk)?
**A.** Its Pain threshold is 12.0 gf and 12.0 ± 0.9 gf.

**Q.** What about the Pain threshold (rat incision pain model; 100 mpk) of the same molecule?
**A.** The Pain threshold was 22.3 gf and 22.3 ± 1.3 gf.

**Q.** What about the Pain threshold (rat incision pain model; 200 mpk) of the same molecule?
**A.** Its Pain threshold is 22.4 gf and 22.4 ± 2.5 gf.

**Q.** And the “Percent increase in threshold” value (rat incision pain model; 30 mpk)?
**A.** Its value is 15%.

**Q.** What about the “Percent increase in threshold” value (rat incision pain model; 100 mpk) of the same molecule?
**A.** The value was 114%.

**Q.** What about the “Percent increase in threshold” value (rat incision pain model; 200 mpk) of the same molecule?
**A.** Its value is 114%.
